From patent publication US20100137230A1, “NEW PYRIDIN-2-ONE COMPOUNDS” (priority 2007, published 2010)

Tests used:
Type in all cases: cell-based
[1] = test system: panel of Gram positive and Gram negative bacteria; test: in vitro screens against a panel of Gram positive and Gram negative bacteria
Method: (§1) All examples were tested against a panel of Gram positive and Gram negative bacteria. […] Typical MIC ranges […] are: S. aureus (MRSA) 0.06-2 (linezolid 1-2, ciprofloxacin 0.5-32) S. aureus (MSSA) 0.06-2 (linezolid 1-2, ciprofloxacin 0.125-1) E. faecalis 0.02-1 (linezolid 0.5-2, ciprofloxacin 0.5-32) E. faecium 0.02-1 (linezolid 1-2, ciprofloxacin 0.25-32) S. pneumoniae 0.02-1 (linezolid 0.125-1, ciprofloxacin 1-4) However, cleavage of saccharide modified compounds such as compounds from example 1 and 2 by esterases and glucosidases that occur in human plasma yields the corresponding antibiotically active compounds.

S. aureus (MRSA) = test: MIC against panel of bacteria: S. aureus (MRSA)
Method: as §1

S. aureus (MSSA) = test: MIC against panel of bacteria: S. aureus (MSSA)
Method: as §1

E. faecalis = test: MIC against panel of bacteria: E. faecalis
Method: as §1

E. faecium = test: MIC against panel of bacteria: E. faecium
Method: as §1

S. pneumoniae = test: MIC against panel of bacteria: S. pneumoniae
Method: as §1

Row | Typical MIC ranges (S. aureus (MRSA)) [µg/mL] | Typical MIC ranges (S. aureus (MSSA)) [µg/mL] | Typical MIC ranges (E. faecalis) [µg/mL] | Typical MIC ranges (E. faecium) [µg/mL] | Typical MIC ranges (S. pneumoniae) [µg/mL] | Structure (SMILES) | activity in the in vitro screens [1]
1 | – | – | – | – | – | CC(=O)NC[C@H]1CN(c2ccc(OCC3(OC(=O)[C@H]4O[C@@H](O)[C@H](O)[C@@H](O)[C@@H]4O)CCN(c4c(F)cn5c(=O)c(C(=O)O)cc(C6CC6)c5c4C)CC3)c(F)c2)C(=O)O1 [Example 1, 8-[4-{4-[(S)-5-(Acetylamino-methyl)-2-oxo-oxazolidin-3-yl]-2-fluoro-phenoxymethyl}-4-((2S,3S,4S,5R,6R)-3,4,5,6-tetrahydroxy-tetrahydro-pyran-2-carbonyloxy)-piperidin-1-yl]-1-cyclopropyl-7-fluoro-9-methyl-4-oxo-4H-quinolizine-3-carboxylic acid] | inactive
2 | – | – | – | – | – | CC(=O)NC[C@H]1CN(c2ccc(OCC3(OC(=O)[C@H](O)[C@@H](O)[C@H](O)[C@H](O)CO)CCN(c4c(F)cn5c(=O)c(C(=O)O)cc(C6CC6)c5c4C)CC3)c(F)c2)C(=O)O1 [Example 2, 8-[4-{4-[(S)-5-(Acetylamino-methyl)-2-oxo-oxazolidin-3-yl]-2-fluoro-phenoxymethyl}-4-((2R,3S,4R,5R)-2,3,4,5,6-pentahydroxy-hexanoyloxy)-piperidin-1-yl]-1-cyclopropyl-7-fluoro-9-methyl-4-oxo-4H-quinolizine-3-carboxylic acid] | inactive
3 | 0.5 to 32 | 0.125 to 1 | 0.5 to 32 | 0.25 to 32 | 1 to 4 | O=C(O)c1cn(C2CC2)c2cc(N3CCNCC3)c(F)cc2c1=O [ciprofloxacin] | –
4 | 1 to 2 | – | 0.5 to 2 | – | 125 to 1000 | CC(=O)NC[C@H]1CN(c2ccc(N3CCOCC3)c(F)c2)C(=O)O1 [linezolid] | –
